Drawing on patent EP0659743A1, “Piperidine derivatives as inhibitors of platelet aggregation and their preparation” (HOECHST AKTIENGESELLSCHAFT, priority 1993, dated 1995), this text covers IC50 for three molecules.

In experiment [1] the test system is Gel Filtered Platelets (GFP). The experiment can be described thus: ADP induced aggregation of Gel Filtered Platelets (GFP). The format is cell-based. Particulars: Homo sapiens, Platelet, 0.05 h, GFP (gel filtered platelets) in Tyrode's buffer, fibrinogen 1 mg/ml, 37°C for 3 min, read-out: IC₅₀(µM) Inhibitor of ADP induced Platelet aggregation. The method, then: The compounds of the above invention are tested for platelet binding inhibitory activity in the following assays: • 1. In-vitro Human Platelet Aggregation in PRP: Blood is drawn from healthy human volunteers who had no medication for at least two weeks. 8.4 ml of venous blood are collected into 1.4 ml of ACD solution (citric acid 0.8 %, sodium citrate 2.2 %, hirudin 0.6 u/ml) and centrifuged for 10 min. at 120 g. The platelet rich plasma (PRP) is carefully removed and remaining blood is further centrifuged at 1200 g for 15 min. to separate platelet poor plasma (PPP). For aggregation studies the aggregometer is adjusted by using PPP and PRP. ADP is then added tp PRP which is kept at 37°C and stirred constantly at 1000 rpm. The aggregation of platelets causes an increase in transparency of PRP which is recorded. • 2. Preparation of Gel Filtered Platelets (GFP): Platelet rich plasma (PRP) is collected as mentioned in the above procedure. Its pH is adjusted to 6.5 with ACD solution and then centrifuged at 285 g for 20 min.. The resulting pellet is resuspended in Tyrode's buffer (NaCl, 7.01 g/l; KCl, 0194 g/l; NaHCO₃, 1.01 g/l; Glucose, 1.09 g/l; NaH₂PO₄, 0.061 g/l; Hepes, 2.380 g/l; albumin, 3.5 g/l) and the platelet suspension is applied on to a ^RSepharose CL 20 column. […] After the addition of fibrinogen (final conc. 1 mg/ml) the aggregation is recorded. […]

Experiment [2] deals with Human Platelet. The experiment can be described thus: In-vitro Human Platelet Aggregation in PRP (ADP induced). In kind it is cell-based. The settings on record: PRP (platelet rich plasma), 37°C, read-out: IC₅₀(µM) Inhibitor of ADP induced Platelet aggregation. The procedure: The compounds of the above invention are tested for platelet binding inhibitory activity in the following assays: • 1. In-vitro Human Platelet Aggregation in PRP: Blood is drawn from healthy human volunteers who had no medication for at least two weeks. 8.4 ml of venous blood are collected into 1.4 ml of ACD solution (citric acid 0.8 %, sodium citrate 2.2 %, hirudin 0.6 u/ml) and centrifuged for 10 min. at 120 g. The platelet rich plasma (PRP) is carefully removed and remaining blood is further centrifuged at 1200 g for 15 min. to separate platelet poor plasma (PPP). For aggregation studies the aggregometer is adjusted by using PPP and PRP. ADP is then added tp PRP which is kept at 37°C and stirred constantly at 1000 rpm. The aggregation of platelets causes an increase in transparency of PRP which is recorded. • 2. Preparation of Gel Filtered Platelets (GFP): Platelet rich plasma (PRP) is collected as mentioned in the above procedure. Its pH is adjusted to 6.5 with ACD solution and then centrifuged at 285 g for 20 min.. The resulting pellet is resuspended in Tyrode's buffer (NaCl, 7.01 g/l; KCl, 0194 g/l; NaHCO₃, 1.01 g/l; Glucose, 1.09 g/l; NaH₂PO₄, 0.061 g/l; Hepes, 2.380 g/l; albumin, 3.5 g/l) and the platelet suspension is applied on to a ^RSepharose CL 20 column. Equilibrium and elution is done with Tyrode's buffer. Platelets are recovered in the void volume. Final platelet concentration is adjusted to 4 X 108 platelets/ml. For the aggregation studies, GFP in Tyrodes buffer is mixed with calcium chloride (final concentration […]) and an agonist (ADP or Thrombin) with or without test compound (1 to 300 µM) and incubated at 37°C for 3 min.. After the addition of fibrinogen (final conc. 1 mg/ml) the aggregation is recorded.
Aggregation maximum for PRP or GFP without any inhibitor is taken as 100 % aggregation and is compared with aggregation maximum of RPR or GFP incubated with the test compound.

Take `COC(=O)COc1ccc(CCC(=O)c2c(OC)cc(OC)c(C3CCN(C)CC3)c2O)cc1` [Compound 7]: the IC50 in experiment [1] worked out at 2 µM; in experiment [2], 8 µM.
Turning to `COC(=O)COc1ccc(C=CC(=O)c2c(OC)cc(OC)c(C3CCN(C)CC3O)c2O)cc1` (centres unmarked) [Compound 2], the IC50 in experiment [1] is 0.53 µM; in experiment [2], 5.3 µM.
With `COC(=O)COc1ccc(C=CC(=O)c2c(OC)cc(OC)c(C3CCN(C)CC3)c2O)cc1` [Compound 6], the IC50 in experiment [2] is 17 µM.
